The text below walks through data of ChEMBL document CHEMBL1157973, “ent-Trachylobane diterpenoids from Xylopia langsdorffiana” (J Nat Prod, 2006).

The test system of experiment [1] is K562. The experiment can be described thus: Cytotoxicity against human K562 cells. It counts as functional, cell-based.
In experiment [2] the test system is V79. The experiment can be described thus: Cytotoxicity against chinese hamster V79 cells by MTT assay. It counts as cell-based. As to conditions: Cricetulus griseus.
The subject of experiment [3] is Hepatocyte. The experiment can be described thus: Cytotoxicity against Wistar rat hepatocytes cells by MTT assay. Format: cell-based.

With `CC(=O)O[C@@H]1CC2[C@@](C)(C(=O)O)CCC[C@@]2(C)[C@@H]2C[C@@H]3C4C[C@@]21C[C@]43C` (stereo partly drawn), the IC50 in experiment [1] was determined as 200 µM; in experiment [2], 224 µM; in experiment [3], 231 µM.
